The text below walks through data of ChEMBL document CHEMBL2016481, “Cytotoxic cytochalasins from the endozoic fungus Phoma sp. of the giant jellyfish Nemopilema nomurai” (Bioorg Med Chem Lett, 2012).

The structures appear in SMILES notation. pIC50: −log10 of the molar value. Active and inactive are the calls of the source. The calls are words filed in the database; no cut-off is given here.

What all share (type): functional, cell-based
One experiment concerns A549. The experiment can be described thus: Cytotoxicity against human A549 cells after 48 hrs by SRB assay. The conditions noted are these: A549, 48 h.
The next experiment deals with SK-OV-3. Description: Cytotoxicity against human SKOV3 cells after 48 hrs by SRB assay. The conditions noted are these: SK-OV-3, 48 h.
A further experiment concerns SK-MEL-2. Description: Cytotoxicity against human SK-MEL-2 cells after 48 hrs by SRB assay. The conditions noted are these: SK-MEL-2, 48 h.
A further experiment has as its system XF498. The experiment can be described thus: Cytotoxicity against human XF498 cells after 48 hrs by SRB assay. The settings on record: XF498, 48 h. In general terms: Sulforhodamine B stains cellular protein and so reports cell mass.
The subject of the next experiment is HCT-15. The experiment can be described thus: Cytotoxicity against human HCT15 cells after 48 hrs by SRB assay. The settings on record: HCT-15, 48 h.
The subject of experiment [1] is HeLa. The experiment can be described thus: Cytotoxicity against human HeLa cells after 48 hrs by SRB assay.
Experiment [2] concerns HeLa. Description: Induction of mitochondrial apoptosis in human HeLa cells.

As to `CC1=C(C)[C@H]2[C@H](Cc3ccccc3)NC(=O)[C@]23OC(=O)/C=C/[C@H](O)CCC[C@@H](C)C/C=C/[C@H]3[C@@H]1O`, the negative logarithm of the IC50 (pIC50) (as a rule, the IC50 on a negative log10 scale, so that one unit is a factor of ten) with A549 is 5.22; with SK-OV-3, 5.35; in the experiment on SK-MEL-2 it was 5.28; with XF498, 4.91; with HCT-15, 5.24.
For `C[C@H]1C/C=C/[C@H]2[C@@H]3O[C@]3(C)[C@@H](C)[C@H]3[C@H](Cc4ccccc4)NC(=O)[C@]32OC(=O)/C=C/CCCC1`, the pIC50 in the experiment with A549 is 4.91; with SK-OV-3, 5.38; in the experiment on SK-MEL-2, 5.08; in the experiment with HCT-15, 5.41.
Regarding `C=C1[C@@H](C)[C@H]2[C@H](Cc3ccccc3)NC(=O)[C@]23OC(=O)/C=C/[C@H](O)CCC[C@@H](C)C/C=C/[C@H]3[C@@H]1O` [CYTOCHALASIN B], the pIC50 with A549 was 5.67; with SK-OV-3, 6.34; with SK-MEL-2, 6.17; in the experiment on XF498, 5.63; in the experiment on HCT-15, 5.71; with HeLa [1], 5.10. The inhibition result in the experiment with HeLa [1] was “Dose-dependent effect”. Also, the outcome with HeLa [2] was Active.
Regarding `CC1=C(C)[C@H]2[C@H](Cc3ccccc3)NC(=O)[C@]23C(=O)/C=C/[C@H](O)CCC[C@@H](C)C/C=C/[C@H]3[C@@H]1O` [DEOXAPHOMIN B], the negative logarithm of the IC50 (pIC50) with A549 is 4.63; with SK-OV-3, 4.86; in the experiment with SK-MEL-2, 4.91; in the experiment with HCT-15, 4.53.
For `CC1=C[C@@H]2/C=C/C[C@H](C)CCC[C@@H](O)/C=C/C(=O)[C@]23C(=O)N[C@@H](Cc2ccccc2)[C@@H]3[C@@H]1C` [DEOXAPHOMIN C], the pIC50 in the experiment on A549 is 5.07; in the experiment with SK-OV-3, 5.26; in the experiment with SK-MEL-2, 5.18; with HCT-15 it was 5.07.
`COc1cccc2c1C(=O)c1c(O)c3c(c(O)c1C2=O)C[C@@](O)(C(=O)CO)C[C@@H]3O[C@H]1C[C@H](N)[C@H](O)[C@H](C)O1` [DOXORUBICIN]: the pIC50 is 8.70 with SK-OV-3, 8.70 in the experiment with SK-MEL-2, 7.82 with XF498 and 7.46 with HCT-15.
